Tests used:
bamyardgrass = assay: Test B flood test barnyardgrass; type: in vivo, Echinochloa crus-galli
Summary of the method: (§1)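 Read-out is a visual response score from 0 (no effect) to 10 (complete control), assigned by comparison with untreated controls. Treatment was applied at the 2-leaf stage, and plants stayed in the greenhouse for twelve to sixteen days before scoring.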

soybean = assay: Test B pre/postemergence soybean; type: in vivo, Glycine max; settings: for Soybean plant response rating: scale of 0 to 10 where 0 is no effect and 10 is complete control
Summary of the method: (§2)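 Response is a visual 0-to-10 score relative to untreated plants, where 0 means no effect and 10 means complete control, taken twelve to sixteen days after application. Treatments went onto soil at planting and onto foliage of 1- to 4-leaf plants, using a surfactant-containing non-phytotoxic solvent.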

wild oat = assay: Test B pre/postemergence wild oat; type: in vivo, Avena fatua; settings: for Wild oats plant response rating: scale of 0 to 10 where 0 is no effect and 10 is complete control
Summary of the method: as §2

purple nutsedge = assay: Test B pre/postemergence purple nutsedge; type: in vivo, Cyperus rotundus; settings: for Nutsedge plant response rating: scale of 0 to 10 where 0 is no effect and 10 is complete control
Summary of the method: as §2

velvetleaf = assay: Test B pre/postemergence velvetleaf; type: in vivo, Abutilon theophrasti; settings: for Velvetleaf plant response rating: scale of 0 to 10 where 0 is no effect and 10 is complete control
Summary of the method: as §2

cocklebur = assay: Test B pre/postemergence cocklebur; type: in vivo, Xanthium strumarium; settings: for Cocklebur plant response rating: scale of 0 to 10 where 0 is no effect and 10 is complete control
Summary of the method: as §2

blackgrass = assay: Test B pre/postemergence blackgrass; type: in vivo, Alopecurus myosuroides
Summary of the method: as §2

sugar beet = assay: Test B pre/postemergence sugar beet; type: in vivo, Beta vulgaris; settings: for Sugarbeets plant response rating: scale of 0 to 10 where 0 is no effect and 10 is complete control
Summary of the method: as §2

duck salad = assay: Test B flood test duck salad; type: in vivo, Heteranthera limosa
Summary of the method: as §1

smallflower flatsedge = assay: Test B flood test smallflower flatsedge; type: in vivo, Cyperus difformis
Summary of the method: as §1

rice = assay: Test B flood test rice; type: in vivo, Oryza sativa
Summary of the method: as §1

morningglory = assay: Test B pre/postemergence morningglory; type: in vivo, Ipomoea hederacea; settings: for Morningglory plant response rating: scale of 0 to 10 where 0 is no effect and 10 is complete control
Summary of the method: as §2

giant foxtail = assay: Test B pre/postemergence giant foxtail; type: in vivo, Setaria faberii; settings: for Giant foxtail plant response rating: scale of 0 to 10 where 0 is no effect and 10 is complete control
Summary of the method: as §2

wheat = assay: Test B pre/postemergence wheat; type: in vivo, Triticum aestivum; settings: for Wheat plant response rating: scale of 0 to 10 where 0 is no effect and 10 is complete control
Summary of the method: as §2

rape = assay: Test B pre/postemergence rape; type: in vivo, Brassica napus; settings: for Rape plant response rating: scale of 0 to 10 where 0 is no effect and 10 is complete control
Summary of the method: as §2

pigweed = assay: Test B pre/postemergence pigweed; type: in vivo, Amaranthus retroflexus; settings: for Redroot pigweed plant response rating: scale of 0 to 10 where 0 is no effect and 10 is complete control
Summary of the method: as §2

[1] = Postemergence (flood test), Rate 125 g/ha, scale 0 to 10, 0 is no effect, 10 is complete control
[2] = Rate 62 g/ha, Postemergence (flood test species), scale of 0 to 10 where 0 is no effect and 10 is complete control
[3] = Rate 62 g/ha, flood test species, Pre-emergence, visual evaluation after twelve to sixteen days
[4] = Rate 125 g/ha, Pre-emergence, flood test species, scale 0 to 10 where 0 is no effect and 10 is complete control
[5] = Rate 250 g/ha, Pre-emergence, flood-test species, scale 0 to 10, 0 is no effect, 10 is complete control
[6] = Rate 500 g/ha, Pre-emergence, flood test species, scale 0 to 10 (0 no effect, 10 complete control)
[7] = Postemergence, Rate 125 g/ha, scale 0 to 10, 0 is no effect, 10 is complete control
[8] = Preemergence, Rate 62 g/ha, scale 0 to 10 (0 no effect, 10 complete control)
[9] = Rate 500 g/ha, Postemergence, scale 0 to 10, 0 no effect, 10 complete control

CCC(CC)n1c(=O)on(C(=O)N(c2ccc(F)cc2)C(C)C)c1=O [Compound 358]
Plant response rating, Barnyardgrass (bamyardgrass; [1]): 2 | Barnyardgrass plant response rating (bamyardgrass; [2]): 2 | Plant response rating, Barnyardgrass (0 to 10 scale, 0 is no effect, 10 is complete control) (bamyardgrass; [3]): 0 | Barnyardgrass plant response rating (bamyardgrass; [4]): 0 | Plant response rating, Barnyardgrass (bamyardgrass; Rate 250 g/ha, Postemergence (flood test species), scale of 0 to 10 where 0 is no effect and 10 is complete control): 9 | Barnyardgrass plant response rating (bamyardgrass; [5]): 9 | Barnyardgrass plant response rating (bamyardgrass; [6]): 9 | Plant response rating, Soybean (soybean; [7]): 4 | Plant response rating, Soybean (soybean; [8]): 0 | Soybean plant response rating (0 to 10 scale) (soybean; Preemergence, Rate 125 g/ha): 0 | Soybean plant response rating (soybean; Preemergence, Rate 250 g/ha): 0 | Soybean plant response rating (soybean; Preemergence, Rate 500 g/ha): 1 | Soybean plant response rating (soybean; Rate 62 g/ha, Postemergence): 4 | Plant response rating, Soybean (soybean; [9]): 7 | Plant response rating, Wild oats (wild oat; [7]): 3 | Plant response rating, Wild oats (wild oat; [8]): 4 | Wild oats plant response rating (0 to 10 scale) (wild oat; Preemergence, Rate 125 g/ha): 5 | Wild oats plant response rating (wild oat; Preemergence, Rate 250 g/ha): 9 | Wild oats plant response rating (wild oat; Preemergence, Rate 500 g/ha): 10 | Wild oats plant response rating (wild oat; Rate 62 g/ha, Postemergence): 0 | Plant response rating, Wild oats (wild oat; [9]): 7 | Plant response rating, Nutsedge (purple nutsedge; [7]): 0 | Plant response rating, Nutsedge (purple nutsedge; [8]): 0 | Nutsedge plant response rating (0 to 10 scale) (purple nutsedge; Preemergence, Rate 125 g/ha): 0 | Nutsedge plant response rating (purple nutsedge; Preemergence, Rate 250 g/ha): 0 | Nutsedge plant response rating (purple nutsedge; Preemergence, Rate 500 g/ha): 0 | Nutsedge plant response rating (purple nutsedge; Rate 62 g/ha, Postemergence): 0 | Plant response rating, Nutsedge (purple nutsedge; [9]): 0 | Plant response rating, Velvetleaf (velvetleaf; [7]): 2 | Plant response rating, Velvetleaf (velvetleaf; [8]): 3 | Velvetleaf plant response rating (0 to 10 scale) (velvetleaf; Preemergence, Rate 125 g/ha): 4 | Velvetleaf plant response rating (velvetleaf; Preemergence, Rate 250 g/ha): 5 | Velvetleaf plant response rating (velvetleaf; Preemergence, Rate 500 g/ha): 8 | Velvetleaf plant response rating (velvetleaf; Rate 62 g/ha, Postemergence): 2 | Plant response rating, Velvetleaf (velvetleaf; [9]): 3 | Plant response rating, Cocklebur (cocklebur; [7]): 0 | Plant response rating, Cocklebur (cocklebur; [8]): 0 | Cocklebur plant response rating (0 to 10 scale) (cocklebur; Preemergence, Rate 125 g/ha): 0 | Cocklebur plant response rating (cocklebur; Preemergence, Rate 250 g/ha): 0 | Cocklebur plant response rating (cocklebur; Preemergence, Rate 500 g/ha): 0 | Cocklebur plant response rating (cocklebur; Rate 62 g/ha, Postemergence): 0 | Plant response rating, Cocklebur (cocklebur; [9]): 0 | Plant response rating, Blackgrass (blackgrass; [7]): 6 | Plant response rating, Blackgrass (blackgrass; [8]): 4 | Blackgrass plant response rating (0 to 10 scale) (blackgrass; Preemergence, Rate 125 g/ha): 8 | Blackgrass plant response rating (blackgrass; Preemergence, Rate 250 g/ha, scale of 0 to 10 where 0 is no effect and 10 is complete control): 10 | Blackgrass plant response rating (blackgrass; Preemergence, Rate 500 g/ha, scale of 0 to 10 where 0 is no effect and 10 is complete control): 10 | Blackgrass plant response rating (blackgrass; Rate 62 g/ha, Postemergence, scale of 0 to 10 where 0 is no effect and 10 is complete control): 2 | Plant response rating, Blackgrass (blackgrass; Rate 250 g/ha, Postemergence, scale of 0 to 10 where 0 is no effect and 10 is complete control): 8 | Plant response rating, Blackgrass (blackgrass; [9]): 8 | Plant response rating, Sugarbeets (sugar beet; [7]): 0 | Plant response rating, Sugarbeets (sugar beet; [8]): 0 | Sugarbeets plant response rating (0 to 10 scale) (sugar beet; Preemergence, Rate 125 g/ha): 1 | Sugarbeets plant response rating (sugar beet; Preemergence, Rate 250 g/ha): 3 | Sugarbeets plant response rating (sugar beet; Preemergence, Rate 500 g/ha): 3 | Sugarbeets plant response rating (sugar beet; Rate 62 g/ha, Postemergence): 0 | Plant response rating, Sugarbeets (sugar beet; [9]): 4 | Plant response rating, Ducksalad (duck salad; [1]): 2 | Ducksalad plant response rating (duck salad; [2]): 0 | Plant response rating, Ducksalad (0 to 10 scale, 0 is no effect, 10 is complete control) (duck salad; [3]): 0 | Ducksalad plant response rating (duck salad; [4]): 0 | Ducksalad plant response rating (duck salad; [5]): 0 | Ducksalad plant response rating (duck salad; [6]): 2 | Plant response rating, S. Flatsedge (smallflower flatsedge; [1]): 0 | S. Flatsedge plant response rating (smallflower flatsedge; [2]): 0 | Plant response rating, S. Flatsedge (0 to 10 scale, 0 is no effect, 10 is complete control) (smallflower flatsedge; [3]): 0 | S. Flatsedge plant response rating (smallflower flatsedge; [4]): 6 | S. Flatsedge plant response rating (smallflower flatsedge; [5]): 8 | S. Flatsedge plant response rating (smallflower flatsedge; [6]): 8 | Plant response rating, Rice (rice; [1]): 0 | Rice plant response rating (rice; [2]): 0 | Plant response rating, Rice (0 to 10 scale, 0 is no effect, 10 is complete control) (rice; [3]): 0 | Rice plant response rating (rice; [4]): 0 | Rice plant response rating (rice; [5]): 0 | Plant response rating, Rice (rice; Rate 500 g/ha, listed under Postemergence (flood test species), scale 0 to 10, 0 no effect, 10 complete control): 0 | Rice plant response rating (rice; [6]): 8 | Plant response rating, Morningglory (morningglory; [7]): 5 | Plant response rating, Morningglory (morningglory; [8]): 0 | Morningglory plant response rating (0 to 10 scale) (morningglory; Preemergence, Rate 125 g/ha): 0 | Morningglory plant response rating (morningglory; Preemergence, Rate 250 g/ha): 3 | Morningglory plant response rating (morningglory; Preemergence, Rate 500 g/ha): 5 | Morningglory plant response rating (morningglory; Rate 62 g/ha, Postemergence): 3 | Plant response rating, Morningglory (morningglory; [9]): 7 | Plant response rating, Giant foxtail (giant foxtail; [7]): 8 | Plant response rating, Giant foxtail (giant foxtail; [8]): 10 | Giant foxtail plant response rating (0 to 10 scale) (giant foxtail; Preemergence, Rate 125 g/ha): 10 | Giant foxtail plant response rating (giant foxtail; Preemergence, Rate 250 g/ha): 10 | Giant foxtail plant response rating (giant foxtail; Preemergence, Rate 500 g/ha): 10 | Giant foxtail plant response rating (giant foxtail; Rate 62 g/ha, Postemergence): 3 | Plant response rating, Giant foxtail (giant foxtail; [9]): 8 | Plant response rating, Wheat (wheat; [7]): 3 | Plant response rating, Wheat (wheat; [8]): 0 | Wheat plant response rating (0 to 10 scale) (wheat; Preemergence, Rate 125 g/ha): 0 | Wheat plant response rating (wheat; Preemergence, Rate 250 g/ha): 1 | Wheat plant response rating (wheat; Preemergence, Rate 500 g/ha): 3 | Wheat plant response rating (wheat; Rate 62 g/ha, Postemergence): 2 | Plant response rating, Wheat (wheat; [9]): 5 | Plant response rating, Rape (rape; [7]): 1 | Plant response rating, Rape (rape; [8]): 0 | Rape plant response rating (0 to 10 scale) (rape; Preemergence, Rate 125 g/ha): 0 | Rape plant response rating (rape; Preemergence, Rate 250 g/ha): 4 | Rape plant response rating (rape; Preemergence, Rate 500 g/ha): 4 | Rape plant response rating (rape; Rate 62 g/ha, Postemergence): 1 | Plant response rating, Rape (rape; [9]): 4 | Plant response rating, Redroot pigweed (pigweed; [7]): 3 | Plant response rating, Redroot pigweed (pigweed; [8]): 7 | Redroot pigweed plant response rating (0 to 10 scale) (pigweed; Preemergence, Rate 125 g/ha): 9 | Redroot pigweed plant response rating (pigweed; Preemergence, Rate 250 g/ha): 10 | Redroot pigweed plant response rating (pigweed; Preemergence, Rate 500 g/ha): 10 | Redroot pigweed plant response rating (pigweed; Rate 62 g/ha, Postemergence): 3 | Plant response rating, Redroot pigweed (pigweed; [9]): 6

Reference: patent US6737383B1, “Herbicidal oxadiazolidines” (priority 1999, dated 2004)
